Laboratory results: patent publication US20140378424A1, “ESTROGEN RECEPTOR MODULATORS FOR REDUCING BODY WEIGHT” (RosScreening, Inc., priority 2011, published 2014)

Key:
[1] = Example 4: 8 week weight loss experiment in obese mice, compounds via drinking water; assay type: in vivo, Male C57BL6/J mice; conditions: obese mice on high-fat diet, 8 weeks, most compounds 0.5 and 2.5 mg/kg/day, hexestrol 0.125 to 2 mg/kg/day
Procedure: An 8 week experiment was performed to investigate the ability of various estrogen modulating compounds to induce weight loss in obese mice. Male C57BL6/J mice were placed on a high fat diet for approximately 12 weeks prior to the study and initiated in the experiment at 18 weeks of age. Obese mice were allocated into cohorts of 6 mice per compound and housed at a density of 3 per cage. Over 8 weeks, mice were placed on a high-fat diet ad libitum and compounds were provided via drinking water. Most compounds were assigned to two treatment groups with doses of 0.5 mg/kg/day and 2.5 mg/kg/day. Hexestrol was assigned to 5 treatment groups ranging between 0.125 mg/kg/day and 2 mg/kg/day. Weight measurements of each mouse were taken once per week over 8 weeks.

[2] = Example 3: 8 week weight loss experiment in obese mice, compound in drinking water or feed; assay type: in vivo, male C57BL6/J mice; conditions: for body weight in comparison to controls / body weight reduction from controls: 8 weeks; for fat tissue mass (NMR body composition analysis): after 8 weeks
Procedure: (§1) An 8 week long weight loss experiment was performed on obese 18 week old male C57BL6/J mice having been on a high fat diet for approximately 12 weeks. The estrogen modulating compound treatment groups (hexestrol, clomiphene, raloxifene, and tamoxifen) were either provided in drinking water or feed. Obese mice were allocated into cohorts of 6 mice per compound per treatment type and housed at a density of 1 mouse per cage. Water treatment group mice were placed on a high fat diet ad libitum with compound provided via drinking water. Each feed treatment group received a specially formulated high fat diet containing their corresponding compound ad libitum and normal drinking water. Weight measurements of each mouse were taken twice per week over 8 weeks. Food intake per mouse per day was also recorded.
(§2) At the end of 8 weeks mice underwent a body tissue composition analysis by Echo MRI (NMR), an intraperitoneal glucose tolerance test (IPGTT), and an oral glucose tolerance test (OGTT). For IPGTT, each mouse received an intraperitoneal glucose solution injection of 1 g glucose/kg body weight. Serum glucose concentration was measured pre-injection, and 30, 60, and 90 minutes post-injection. For OGTT, each mouse received an oral glucose solution dose of 1 g glucose/kg body weight. Serum glucose was measured before the oral dose, and 15, 30, 90, and 120 minutes after oral dose.

[3] = Example 1 Phase 1: prevention of weight gain in lean mice placed on high fat diet, drug via drinking water for 8 weeks; assay type: in vivo, Male C57BL6/J mice; conditions: for lean mouse body weight accumulation over the 8 week period: drug in drinking water, vs control mice
Procedure: (§3) Male C57BL6/J mice were tested as follows. The animal room was lighted entirely with artificial fluorescent lighting on controlled 12 hr light/dark cycle (6 a.m. to 6 p.m. light). The normal temperature and relative humidity ranges in the animal rooms were maintained at 22±4° C. and 50±15%, respectively. The animal room was set for 15 air exchanges per hour. Filtered tap water acidified to a pH of 2.5 to 3.0 was provided ad libitum. High fat diet was provided ad libitum.
After a 1 week acclimation, the mice were grouped into cohorts of 6 mice each. 6 DIO (diet induced obesity) and 6 lean C57BL6/J mice were used as naïve controls. Each drug was administered via drinking water for 8 weeks. The drug containing drinking water solutions were made fresh weekly. Water intake, food intake, and body weights were recorded weekly.
This experiment was run in two phases, Phase 1 (prevention of weight gain in lean mice) and Phase 2 (weight loss in obese mice). In the phase 1 experiment, the mice were placed on high fat diet at the same time administration of the drug was initiated. In the phase 2 experiment, drug treatment was initiated on 18 week old mice, which were previously on a high fat diet for approximately 12 weeks. In addition to the measurements noted above, a single DEXA Scan analysis was ran on the mice in Phase 2. After treatment, mice underwent body tissue composition analysis by Echo MRI (NMR) to measure their fat and lean mass content.
(§4) Body weight change was calculated for each mouse by subtracting the body weight on the first day of dosing (baseline) from the body weight on the last day of dosing (final) and calculating the percent change from baseline body weight: [=100*(Final Weight−BaselineWeight)/BaselineWeight]. Average percent body weight change was then calculated for each treatment group. Error bars represent standard error of the mean (SEM).
Food intake per mouse per day was calculated based on food intake per cage. Mean food intake for each treatment group was then calculated weighted by the number of mice per cage. Similarly, water intake per mouse per day was calculated based on water intake per cage. Mean water intake for each treatment group was then calculated weighted by the number of mice per cage.
In both phase 1 and 2 studies, the drugs were administered through the water given to the mice. The concentration of each drug in the water is provided below:
Diethylstilbestrol: 2 mg/500 mL (1 mg/kg/day)
Raloxifene: 20 mg/500 mL (10 mg/kg/day)
Tamoxifen: 4 mg/500 mL (2 mg/kg/day)
Clomiphene: 10 mg/500 mL (5 mg/kg/day)
Hexestrol: 4 mg/500 mL (2 mg/kg/day)
A mouse typically drinks about 5 mL of water a day.
Phase 1 (Prevention of Weight Gain in Lean Mice)

[4] = Example 1 Phase 2: weight loss in obese mice, drug via drinking water for 8 weeks; assay type: in vivo, Male C57BL6/J mice
Procedure: as §3
After a 1 week acclimation, the mice were grouped into cohorts of 6 mice each. 6 DIO (diet induced obesity) and 6 lean C57BL6/J mice were used as naïve controls. Each drug was administered via drinking water for 8 weeks. […] Water intake, food intake, and body weights were recorded weekly. […]
as §4, with “Error bars represent standard error of the mean (SEM).” left out
Food intake per mouse per day was calculated based on food intake per cage. Mean food intake for each treatment group was then calculated weighted by the number of mice per cage. Similarly, water intake per mouse per day was calculated based on water intake per cage. […]

[5] = Example 3: oral glucose tolerance test (OGTT) in obese mice after 8 weeks of treatment; assay type: in vivo, male C57BL6/J mice; conditions: hexestrol water treated mice, 1 mg/kg/day, 1 g glucose/kg oral
Procedure: as §1, §2

[6] = Example 3: intraperitoneal glucose tolerance test (IPGTT) in obese mice after 8 weeks of treatment; assay type: in vivo, male C57BL6/J mice; conditions: hexestrol water treated mice, 1 mg/kg/day
Procedure: as §1, §2

C[C@]12CC[C@@H]3c4ccc(O)cc4CC[C@H]3[C@@H]1CC[C@@H]2O [17β-estradiol]
body weight in comparison to the control group [1]: significant reduction

C/C=C(/C(=C/C)c1ccc(O)cc1)c1ccc(O)cc1 [Dienestrol, dienestrol]
body weight in comparison to the control group [1]: significant reduction

CCN(CC)CCOc1ccc(C(=C(Cl)c2ccccc2)c2ccccc2)cc1 [clomiphene]
body weight in comparison to controls ([2]; feed treatment group): significant reduction
body weight in comparison to controls ([2]; water treatment group): significant reduction
fat tissue mass (NMR body composition analysis) ([2]; feed treated mice): significant decrease
lean mouse body weight accumulation over the 8 week period [3]: significant decrease
change in body weight ([4]; 8 weeks, clomiphene 5 mg/kg/day in drinking water): significant
fat tissue mass (NMR body composition analysis) ([4]; after 8 weeks, in comparison to control mice): reduction in fat tissue mass

CC/C(=C(/CC)c1ccc(O)cc1)c1ccc(O)cc1 [diethylstilbestrol]
lean mouse body weight accumulation over the 8 week period [3]: significant decrease

CC[C@H](c1ccc(O)cc1)[C@@H](CC)c1ccc(O)cc1 [hexestrol]
body weight in comparison to the control group [1]: significant reduction
increase of serum glucose concentration upon an oral dose of glucose (OGTT) ([5]; in comparison to controls): increases to a lesser amount
time at which serum glucose returns back to baseline (OGTT) ([5]; post-dose): ≤ 90 min
body weight in comparison to controls ([2]; feed treatment group): significant reduction
body weight reduction from controls ([2]; feed treatment group): 31.7±4.5%
body weight in comparison to controls ([2]; water treatment group): significant reduction
body weight reduction from controls ([2]; water treatment group): 30.8±9.7%
fat tissue mass (NMR body composition analysis) ([2]; feed treated mice): significant decrease
fat tissue mass (NMR body composition analysis) ([2]; water treated mice): significant decrease
serum glucose concentration upon injection of the glucose solution (IPGTT) ([6]; 1 g glucose/kg intraperitoneal, up to 90 minutes post-injection): remains static
starting serum glucose concentration (IPGTT) ([6]; pre-injection, in comparison to controls): significantly lower
reduction of body weight accumulation from control mice ([3]; 8 weeks, hexestrol 2 mg/kg/day in drinking water): 35.0±11.3%
lean mouse body weight accumulation over the 8 week period [3]: significant decrease

O=C(c1ccc(OCCN2CCCCC2)cc1)c1c(-c2ccc(O)cc2)sc2cc(O)ccc12 [raloxifene]
body weight in comparison to controls ([2]; feed treatment group): significant reduction
body weight in comparison to controls ([2]; water treatment group): significant reduction
lean mouse body weight accumulation over the 8 week period [3]: significant decrease

CC/C(=C(\c1ccccc1)c1ccc(OCCN(C)C)cc1)c1ccccc1 [tamoxifen]
body weight in comparison to controls ([2]; feed treatment group): significant reduction
body weight in comparison to controls ([2]; water treatment group): significant reduction
fat tissue mass (NMR body composition analysis) ([2]; feed treated mice): significant decrease
fat tissue mass (NMR body composition analysis) ([2]; water treated mice): significant decrease
lean mouse body weight accumulation over the 8 week period [3]: significant decrease

CN(C)CCOc1ccc(/C(=C(/CCCl)c2ccccc2)c2ccccc2)cc1 [toremifene]
body weight in comparison to the control group [1]: significant reduction
